This is an account of results in article PMC7996328, “Design, Synthesis, and Biological Evaluation of a Series of 5- and 7-Hydroxycoumarin Derivatives as 5-HT1A Serotonin Receptor Antagonists” (Pharmaceuticals, 2021).

“Also recorded” adds a separate entry of the source. Where two headings read alike, the source gives them in different places.

For one data set, the target named is T1, 5-HT2A receptor (Rattus norvegicus, UniProt P14842).
T1 construct: from tissue; host or cells: rat frontal cortex (male SD), membrane homogenate
The experiment in a line: 5-HT2A competition binding assay, [3H]ketanserin, frontal cortex homogenates. Conditions: [3H]ketanserin 1 nM. As to the method:
Male SD rats were decapitated and their brains removed and placed on ice. Frontal cortices were homogenized with a glass homogenizer in 30 vol ice-cold homogenization buffer (50 mM Tris-HCl. 1 mM EDTA. 5 mM MgCl2. pH 7.4). Next, the homogenate was centrifuged at 20,000× g for 15 min at 4 °C. […] The suspension was again centrifuged at 20,000× g for 15 min at 4 °C. The pellet was resuspended in 10 vol. 50 mM Tris-HCl (pH 7.4) and the centrifugation step was repeated. The final pellet was suspended in 10 vol 50 mM Tris-HCl (pH 7.4) and stored at −80 °C.
Non-specific binding was determined in the presence of 10 μM mianserin. After incubation, the reaction mixture was deposited onto UniFilter-96 GF/B plates with the aid of a FilterMate-96 Harvester. Filter plates were presoaked beforehand with 0.4% PEI for 1 h. Next, each filter well was washed with 1.75 mL of 50 mM Tris-HCl (pH 7.4) and left to dry on a heating block set to 50 °C for 2 h. Then 45 µL of Microscint-20 scintillation fluid was added to each filter well and left to equilibrate overnight. Filter-bound radioactivity was counted in a MicroBeta^2 Microplate Counter. Binding curves were fitted with one site non-linear regression. Affinity was presented as the inhibitory constant (pKi ± SEM and Ki ± SEM) from two or three separate experiments.

The target of the next data set is T2, 5-HT1A receptor (Rattus norvegicus, UniProt P19327).
T2 construct: Hippocampal homogenates (15 μg/mL) were added to each tube as the 5-HT1A receptor source; from tissue; host or cells: rat hippocampus (male Sprague-Dawley), membrane homogenate
T2 sequence (P19327 1-422): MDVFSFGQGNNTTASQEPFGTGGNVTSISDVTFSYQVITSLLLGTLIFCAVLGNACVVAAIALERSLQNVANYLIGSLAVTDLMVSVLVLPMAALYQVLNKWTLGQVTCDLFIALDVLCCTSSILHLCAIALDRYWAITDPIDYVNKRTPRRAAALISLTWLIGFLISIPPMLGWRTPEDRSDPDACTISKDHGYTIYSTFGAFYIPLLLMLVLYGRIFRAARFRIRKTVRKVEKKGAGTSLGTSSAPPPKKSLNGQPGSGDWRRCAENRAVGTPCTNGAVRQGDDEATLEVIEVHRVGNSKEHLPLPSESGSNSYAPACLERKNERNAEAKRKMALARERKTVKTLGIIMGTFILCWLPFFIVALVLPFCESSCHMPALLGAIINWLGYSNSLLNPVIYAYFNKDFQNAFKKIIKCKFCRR
Briefly: Antagonist activity for the 5-HT1A receptor, [35S]GTPγS assay in hippocampal homogenates. The class given is biochemical. Conditions: 8-OH-DPAT 1.4 × 10^−7 M, mean ± SEM. As to the method:
Male Sprague–Dawley rats were decapitated, their brains removed, and placed on ice. Hippocampi were dissected and homogenized with a glass homogenizer in 30 vol. ice-cold TED buffer (50 mM Tris-HCl, 1 mM EDTA, 1mM dithiotheritol, pH 7.4). Next, the homogenate was centrifuged at 21,000× g for 30 min at 4 °C. […] The suspension was centrifuged again at 21,000× g for 30 min at 4 °C. The pellet was resuspended in 30 vol. TED buffer (pH 7.4) and the centrifugation step was repeated. The final pellet was suspended in 10 vol 50 mM Tris-HCl (pH 7.4) and stored at −80 °C until use.
Serial dilutions of the compounds tested (10^−10–10^−5 M) were incubated in triplicate with 0.8 nM [^35S]GTPγS in assay buffer (50 mM Tris-HCl, pH = 7.4, 1 mM EGTA, 3 mM MgCl2, 100 mM NaCl, 30 µM GDP) and 8-OH-DPAT (final concentration 1.4 × 10^−7 M) in the final assay volume of 250 µL. Hippocampal homogenates (15 μg/mL) were added to each tube as the 5-HT1A receptor source. […] Non-specific binding was determined with 10 µM of unlabeled GTPγS. […] Next, 96-well Unifilter® Plates (Perkin Elmer, Waltham, MA, USA) were presoaked for 1 h with 50 mM Tris-HCl (pH = 7.4) before harvesting. The reaction was terminated by vacuum filtration onto filter plates with the FilterMate Harvester® (Perkin Elmer, Waltham, MA, USA). The samples were then rapidly washed with 2 mL of 50 mM Tris-HCl (pH = 7.4) buffer. Filter plates were dried for 2 h at 50 °C. After drying, 45 µL of EcoScint-20 scintillant (Perkin Elmer) was added to every well. Radioactivity was counted in a Trilux MicroBeta^2 counter (Perkin Elmer). Data were analyzed with GraphPad Prism 5.0 software (GraphPad Software, San Diego, CA, USA, www.graphpad.com). Curves were fitted with a one-site non-linear regression model. Efficacy (Emax) and half maximal inhibitory concentration (IC50) were calculated from the Cheng–Prusoff equation and expressed as means ± SEM.

Setting [1] is: read-out: Ki (nM ± SEM) (converted).
Setting [2] is: read-out: pKi (M ± SEM) (converted).

T1 sequence (P14842 whole entry): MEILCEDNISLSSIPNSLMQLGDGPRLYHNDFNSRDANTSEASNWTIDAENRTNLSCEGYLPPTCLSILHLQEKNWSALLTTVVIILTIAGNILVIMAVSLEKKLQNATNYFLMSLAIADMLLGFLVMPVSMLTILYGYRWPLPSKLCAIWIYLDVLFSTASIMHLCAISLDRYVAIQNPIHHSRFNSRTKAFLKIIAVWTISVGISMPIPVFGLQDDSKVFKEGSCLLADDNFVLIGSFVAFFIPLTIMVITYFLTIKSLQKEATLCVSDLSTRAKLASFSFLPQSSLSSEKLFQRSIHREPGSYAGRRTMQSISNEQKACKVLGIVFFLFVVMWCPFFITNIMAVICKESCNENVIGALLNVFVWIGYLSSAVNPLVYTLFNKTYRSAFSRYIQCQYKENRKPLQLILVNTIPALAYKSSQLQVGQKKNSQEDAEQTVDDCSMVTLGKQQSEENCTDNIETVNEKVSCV

Molecule `Cc1cc(OCCCCCBr)c2c(C)cc(=O)oc2c1` [Compound 1, 5-(5-bromopentyloxy)-4,7-dimethyl-2H-chromen-2-one] gave a melting point of 99 to 101 °C.

The molecule `COc1ccccc1N1CCN(CCCCCOc2cc(C)cc3oc(=O)cc(C)c23)CC1` [Compound 1a, 5-(5-(4-(2-methoxyphenyl)piperazin-1-yl)pentyloxy)-4,7-dimethyl-2H-chromen-2-one] registered a melting point of 66 to 68 °C. At 5-HT2A receptor (setting [1]), the Ki is 776 ± 187 nM. The Ki at 5-HT2A receptor (setting [2]) was 644 nM. Besides, the IC50 against 5-HT1A receptor is 0.0316 µM. Besides, it took 29.4 ± 7.3 nM to reach a half-maximal effect at 5-HT1A receptor (antagonistic activity) (EC50).

The molecule `Cc1cc(OCCCCCN2CCN(c3ccccc3F)CC2)c2c(C)cc(=O)oc2c1` [Compound 1b, 5-(5-(4-(2-fluorophenyl)piperazin-1-yl)pentyloxy)-4,7-dimethyl-2H-chromen-2-one] had a melting point of 106 to 108 °C. Further, the Ki on 5-HT2A receptor (setting [1]) was 1260 ± 479 nM. This molecule also showed an IC50 on 5-HT1A receptor of 1 µM. Besides, the midpoint of the response on 5-HT1A receptor (antagonistic activity), the EC50, lay at 980 ± 207 nM.

The molecule `COc1cccc(N2CCN(CCCCCOc3cc(C)cc4oc(=O)cc(C)c34)CC2)c1` [Compound 1c, 5-(5-(4-(3-methoxyphenyl)piperazin-1-yl)pentyloxy)-4,7-dimethyl-2H-chromen-2-one] registered a melting point of 103 to 105 °C. Besides, the Ki at 5-HT2A receptor (setting [1]) was 610 ± 139 nM. Further, half-maximal inhibition against 5-HT1A receptor (IC50) was put at 1.58 µM. For the same molecule, the concentration giving a half-maximal response (EC50) at 5-HT1A receptor (antagonistic activity) was 1700 ± 358 nM.

In the case of `Cc1cc(OCCCCCN2CCN(c3cccc(F)c3)CC2)c2c(C)cc(=O)oc2c1` [Compound 1e, 5-(5-(4-(3-fluorophenyl)piperazin-1-yl)pentyloxy)-4,7-dimethyl-2H-chromen-2-one], the melting point was in the range of 101 to 102 °C. For the same molecule, the Ki on 5-HT2A receptor (setting [1]) was 2350 ± 673 nM. Moreover, inhibition at 5-HT1A receptor was half-maximal at 25.1 µM (IC50). At 5-HT1A receptor (antagonistic activity), this molecule yielded an EC50 of 24300 nM.

In the case of `Cc1cc(OCCCCCN2CCN(c3ccccc3Br)CC2)c2c(C)cc(=O)oc2c1` [Compound 1f, 5-(5-(4-(2-bromophenyl)piperazin-1-yl)pentyloxy)-4,7-dimethyl-2H-chromen-2-one], the melting point is 143 to 144 °C. The Ki at 5-HT2A receptor (setting [1]) was 1550 ± 323 nM. For the same molecule, on 5-HT1A receptor, half-maximal inhibition (IC50) was put at 20 µM. At 5-HT1A receptor (antagonistic activity), this molecule registered an EC50 of 20900 nM.

Take `Cc1cc(C)cc(N2CCN(CCCCCOc3cc(C)cc4oc(=O)cc(C)c34)CC2)c1` [Compound 1h, 5-(5-(4-(3,5-dimethylphenyl)piperazin-1-yl)pentyloxy)-4,7-dimethyl-2H-chromen-2-one]: the melting point was in the range of 104 to 106 °C. In addition, the Ki at 5-HT2A receptor (setting [1]) was 1820 ± 636 nM. For the same molecule, on 5-HT1A receptor, the midpoint of inhibition, the IC50, lay at 200 µM. This molecule also showed an EC50 at 5-HT1A receptor (antagonistic activity) of 198000 nM.

For `Cc1cc(OCCCCCN2CCN(c3cccc(Cl)c3Cl)CC2)c2c(C)cc(=O)oc2c1` [Compound 1i, 5-(5-(4-(2,3-dichlorophenyl)piperazin-1-yl)pentyloxy)-4,7-dimethyl-2H-chromen-2-one], the melting point is 162 to 163 °C. For the same molecule, on 5-HT2A receptor (setting [1]), the Ki is 1450 ± 653 nM. The molecule further gave a concentration for half-maximal inhibition (IC50) at 5-HT1A receptor of 15.8 µM. This molecule yielded an EC50 at 5-HT1A receptor (antagonistic activity) of 13700 nM.

`Cc1cc(OCCCCCN2CCN(c3ccccc3C#N)CC2)c2c(C)cc(=O)oc2c1` [Compound 1j, 5-(5-(4-(2-cyanophenyl)piperazin-1-yl)pentyloxy)-4,7-dimethyl-2H-chromen-2-one] displayed a melting point of 148 to 149 °C. Moreover, the Ki on 5-HT2A receptor (setting [1]) is 79 ± 18 nM. This molecule also gave an IC50 against 5-HT1A receptor of 79.4 µM. For the same molecule, the EC50 at 5-HT1A receptor (antagonistic activity) was 74700 nM.

For `Cc1cc(OCCBr)c2c(C)cc(=O)oc2c1` [Compound 2, 5-(2-bromoethoxy)-4,7-dimethyl-2H-chromen-2-one], the melting point was 121 to 123 °C.

Take `COc1ccccc1N1CCN(CCOc2cc(C)cc3oc(=O)cc(C)c23)CC1` [Compound 2a, 5-(2-(4-(2-methoxyphenyl)piperazin-1-yl)ethoxy)-4,7-dimethyl-2H-chromen-2-one]: the melting point is 146 to 148 °C. Moreover, the Ki on 5-HT2A receptor (setting [1]) was 1710 ± 582 nM. The 50% inhibitory concentration (IC50) against 5-HT1A receptor is 2 µM. At 5-HT1A receptor (antagonistic activity), this molecule returned an EC50 of 1880 ± 427 nM.

Molecule `Cc1cc(OCCN2CCN(c3ccccc3F)CC2)c2c(C)cc(=O)oc2c1` [Compound 2b, 5-(2-(4-(2-fluorophenyl)piperazin-1-yl)ethoxy)-4,7-dimethyl-2H-chromen-2-one] showed a melting point of 121 to 123 °C. Moreover, at 5-HT2A receptor (setting [1]), the Ki is 2130 ± 662 nM. The “pIC50 ± SEM” value at 5-HT1A receptor was “no activity”. Besides, the “EC50 (nM ± SEM)” value on 5-HT1A receptor (antagonistic activity) is “did not show any activity; also recorded: no activity”.

Molecule `COc1cccc(N2CCN(CCOc3cc(C)cc4oc(=O)cc(C)c34)CC2)c1` [Compound 2c, 5-(2-(4-(3-methoxyphenyl)piperazin-1-yl)ethoxy)-4,7-dimethyl-2H-chromen-2-one] had a melting point of 124 to 125 °C. For the same molecule, at 5-HT2A receptor (setting [1]), the Ki was 458 ± 109 nM. Further, the Ki on 5-HT2A receptor (setting [2]) was 468 nM. Besides, the IC50 at 5-HT1A receptor was 20 µM. The molecule also gave an EC50 on 5-HT1A receptor (antagonistic activity) of 19100 nM.

`CC(=O)c1c(C)cc2oc(=O)cc(C)c2c1OCCCCCBr` [Compound 3, 6-acetyl-5-(5-bromopentyloxy)-4,7-dimethyl-2H-chromen-2-one] displayed a melting point of 78 to 80 °C.

For `COc1ccccc1N1CCN(CCCCCOc2c(C(C)=O)c(C)cc3oc(=O)cc(C)c23)CC1` [Compound 3a, 6-acetyl-5-(5-(4-(2-methoxyphenyl)piperazin-1-yl)pentyloxy)-4,7-dimethyl-2H-chromen-2-one], on 5-HT2A receptor (setting [1]), the Ki was 641 ± 128 nM. It took 0.0398 µM to reach half-maximal inhibition against 5-HT1A receptor (IC50). Also, the EC50 on 5-HT1A receptor (antagonistic activity) amounted to 39.4 ± 3.63 nM.

Turning to `CC(=O)c1c(C)cc2oc(=O)cc(C)c2c1OCCBr` [Compound 4, 6-acetyl-5-(2-bromoethoxy)-4,7-dimethyl-2H-chromen-2-one], the melting point lay within 168 to 169 °C.

Take `CC(=O)c1c(C)cc2oc(=O)cc(C)c2c1OCCN1CCN(c2cc(C)ccc2C)CC1` [Compound 4d, 6-acetyl-5-(2-(4-(2,5-dimethylphenyl)piperazin-1-yl)ethoxy)-4,7-dimethyl-2H-chromen-2-one]: the Ki at 5-HT2A receptor (setting [1]) was 11900 nM. The IC50 against 5-HT1A receptor is 79.4 µM. Also, it took 74700 nM to reach a half-maximal effect on 5-HT1A receptor (antagonistic activity) (EC50).

Regarding `CC(=O)c1c(C)cc2oc(=O)cc(C)c2c1OCCN1CCN(c2cc(C)cc(C)c2)CC1` [Compound 4h, 6-acetyl-5-(2-(4-(3,5-dimethylphenyl)piperazin-1-yl)ethoxy)-4,7-dimethyl-2H-chromen-2-one], the Ki on 5-HT2A receptor (setting [1]) is 1920 ± 382 nM. Besides, the midpoint of inhibition at 5-HT1A receptor, the IC50, lay at 39.8 µM. The EC50 at 5-HT1A receptor (antagonistic activity) was found to be 26800 nM.

With `COc1cccc(N2CCN(CCCCCOc3ccc4c(C)cc(=O)oc4c3C(C)=O)CC2)c1` [Compound 5c, 8-acetyl-7-(5-[4-(3-methoxyphenyl)piperazin-1-yl]penthoxy)-4-methylchromen-2-one], at 5-HT2A receptor (setting [1]), the Ki is 144 ± 38 nM. Besides, half-maximal inhibition on 5-HT1A receptor (IC50) required 25.1 µM. For the same molecule, the EC50 on 5-HT1A receptor (antagonistic activity) turned out to be 22900 nM.

In turn, `CC(=O)c1c(OCCBr)ccc2c(C)cc(=O)oc12` [Compound 6, 8-acetyl-7-(2-bromoethoxy)-4-methylchromen-2-one] yielded a melting point of 140 to 142 °C.

In general, melting point refers to the temperature, or range, at which the solid turns liquid. In general, IC50 refers to the concentration needed to halve the response being measured. High values mean weaker potency in that assay, low ones greater potency in that assay. The EC50 is the concentration giving half of the maximal effect.
